Assay [1] has as its system Rattus norvegicus. Briefly: Inhibition of firing rates of dopaminergic neurons in the substantia nigra pars compacta by intravenous injection in rats. It is filed as functional.
In assay [2] the test system is Mus musculus. Briefly: Antagonism of apomorphine for 10-20 minutes in reserpinized mice when a dose of 3.7 micro mol/kg is administered intraperitoneally. It is filed as functional.
Assay [3] has as its target D(2) dopamine receptor (Rattus norvegicus, UniProt P61169). Briefly: Binding affinity for [3H]raclopride-labeled dopamine receptor D2 in rat striatum. It is filed as tissue-based.
Assay [4] relates to Mus musculus. As to the kind of experiment: Antagonism of apomorphine in reserpinized mice when a dose of 0.4 micro mol/kg is administered intraperitoneally. It is filed as functional.
In assay [5] the test system is Mus musculus. Briefly: Ability to stimulate dopaminergic systems by effect on locomotor activity in reserpinized mice when a dose of 3.7 micro mol/kg is administered intraperitoneally. In kind it is functional.
The target in assay [6] is T1, D(2) dopamine receptor (Homo sapiens, UniProt P14416). As to the kind of experiment: Binding affinity against [3H]U-86,170-labeled dopamine receptor D2 in cloned CHO cells. In kind it is cell-based.
Assay [7] relates to Mus musculus. Briefly: Antagonism of apomorphine for 0-10 minutes in reserpinized mice when a dose of 37 micro mol/kg is administered intraperitoneally. In kind it is functional.
The subject of assay [8] is Mus musculus. Briefly: Antagonism of apomorphine for 0-10 minutes in reserpinized mice when a dose of 3.7 micro mol/kg is administered intraperitoneally. In kind it is functional.
Assay [9] relates to Mus musculus. Briefly: Antagonism of apomorphine for 0-10 minutes in reserpinized mice when a dose of 0.4 micro mol/kg is administered intraperitoneally. In kind it is functional.
In assay [10] the test system is Mus musculus. Briefly: Antagonism of apomorphine in reserpinized mice when a dose of 3.7 micro mol/kg is administered intraperitoneally. In kind it is functional.
In assay [11] the test system is Mus musculus. Briefly: Antagonism of apomorphine in reserpinized mice when a dose of 37 micro mol/kg is administered intraperitoneally. In kind it is functional.
Assay [12] deals with Mus musculus. Briefly: Ability to stimulate dopaminergic systems by effect on locomotor activity in reserpinized mice when a dose of 37 micro mol/kg is administered intraperitoneally. It is filed as functional.
Assay [13] relates to Mus musculus. As to the kind of experiment: Antagonism of apomorphine for 10-20 minutes in reserpinized mice when a dose of 37 micro mol/kg is administered intraperitoneally. In kind it is functional.
The subject of assay [14] is Mus musculus. Briefly: Antagonism of apomorphine for 10-20 minutes in reserpinized mice when a dose of 0.4 micro mol/kg is administered intraperitoneally. In kind it is functional.
Assay [15] deals with Rattus norvegicus. As to the kind of experiment: Effect on the synthesis rates of dopamine (DOPA accumulation) in the rat ventral limbic brain region at 3.7 uM/kg. It is filed as functional, Limbic system.
In assay [16] the test system is Mus musculus. As to the kind of experiment: Ability to stimulate dopaminergic systems by effect on locomotor activity in reserpinized mice when a dose of 0.4 micro mol/kg is administered intraperitoneally. It is filed as functional.
The species entered for assay [17] is Rattus norvegicus. Briefly: Effect on the synthesis rates of serotonin (5-HTP accumulation) in the rat ventral limbic brain region […]. In kind it is functional, Limbic system.
Assay [18] deals with T1, D(2) dopamine receptor. Briefly: Intrinsic activity from GTP shift using CHO cell membranes expressing dopamine receptor D2. It is filed as functional.
In assay [19] the test system is Rattus norvegicus. As to the kind of experiment: Inhibition of firing rates of dopaminergic neurons in the substantia nigra pars compacta by intravenous injection in rats. In kind it is functional.
Assay [20] concerns Mus musculus. Briefly: Antagonism of apomorphine for 0-10 minutes in reserpinized mice when a dose of 32 micro mol/kg is administered intraperitoneally. In kind it is functional.
Assay [21] relates to Mus musculus. Briefly: Antagonism of apomorphine for 10-20 minutes in reserpinized mice when a dose of 32 micro mol/kg is administered intraperitoneally. In kind it is functional.
Assay [22] concerns Mus musculus. Briefly: Ability to stimulate dopaminergic systems by effect on locomotor activity in reserpinized mice when a dose of 32 micro mol/kg is administered intraperitoneally. It is filed as functional.
Assay [23] concerns Mus musculus. As to the kind of experiment: Antagonism of apomorphine in reserpinized mice when a dose of 32 micro mol/kg is administered intraperitoneally. It is filed as functional.
Assay [24] deals with Mus musculus. Briefly: Antagonism of apomorphine for 0-10 minutes in reserpinized mice when a dose of 3.2 micro mol/kg is administered intraperitoneally. It is filed as functional.
Assay [25] concerns Rattus norvegicus. As to the kind of experiment: Effect on the synthesis rates of serotonin in the rat ventral limbic brain region 3.2 micro mol/kg. Values are given as percent change from the control. It is filed as functional, Limbic system.
For assay [26], the system named is Mus musculus. As to the kind of experiment: Ability to stimulate dopaminergic systems by effect on locomotor activity in reserpinized mice when a dose of 3.2 micro mol/kg is administered intraperitoneally. In kind it is functional.
Assay [27] relates to Mus musculus. As to the kind of experiment: Ability to stimulate dopaminergic systems by effect on locomotor activity in reserpinized mice when a dose of 0.3 micro mol/kg is administered intraperitoneally. It is filed as functional.
Assay [28] has as its system Mus musculus. As to the kind of experiment: Antagonism of apomorphine for 10-20 minutes in reserpinized mice when a dose of 0.3 micro mol/kg is administered intraperitoneally. It is filed as functional.
Assay [29] has as its system Mus musculus. As to the kind of experiment: Antagonism of apomorphine for 0-10 minutes in reserpinized mice when a dose of 0.03 micro mol/kg is administered intraperitoneally. It is filed as functional.
The subject of assay [30] is Rattus norvegicus. Briefly: Effect on the synthesis rates of dopamine in the rat ventral limbic brain region at 3.2 micro mol/kg. It is filed as functional, Limbic system.
For assay [31], the system named is Mus musculus. Briefly: Antagonism of apomorphine in reserpinized mice when a dose of 0.03 micro mol/kg is administered intraperitoneally. It is filed as functional.
Assay [32] concerns Mus musculus. Briefly: Ability to stimulate dopaminergic systems by effect on locomotor activity in reserpinized mice when a dose of 0.03 micro mol/kg is administered intraperitoneally. In kind it is functional.
Assay [33] relates to Mus musculus. Briefly: Antagonism of apomorphine in reserpinized mice when a dose of 0.3 micro mol/kg is administered intraperitoneally. In kind it is functional.
For assay [34], the system named is Mus musculus. As to the kind of experiment: Antagonism of apomorphine for 10-20 minutes in reserpinized mice when a dose of 0.03 micro mol/kg is administered intraperitoneally. In kind it is functional.
The test system of assay [35] is Mus musculus. Briefly: Antagonism of apomorphine for 10-20 minutes in reserpinized mice when a dose of 3.2 micro mol/kg is administered intraperitoneally. In kind it is functional.
Assay [36] concerns Mus musculus. Briefly: Antagonism of apomorphine in reserpinized mice when a dose of 3.2 micro mol/kg is administered intraperitoneally. In kind it is functional.
The subject of assay [37] is Mus musculus. Briefly: Antagonism of apomorphine for 0-10 minutes in reserpinized mice when a dose of 0.3 micro mol/kg is administered intraperitoneally. It is filed as functional.
The test system of assay [38] is Mus musculus. Briefly: Maximum decrease in temperature when compound is administered through peroral route. In kind it is functional.
Assay [39] relates to Mus musculus. Briefly: Time of effect in the face-to-face behavioral assay in the mouse when a dose of 3.6 micro mol/kg is administered subcutaneously. It is filed as functional.
The subject of assay [40] is Mus musculus. As to the kind of experiment: Effective dose on hypothermia in mouse when administered subcutaneously. In kind it is functional.
For assay [41], the system named is Mus musculus. Briefly: Time of effect in the face-to-face behavioral assay in the mouse when a dose of 0.4 micro mol/kg is administered subcutaneously. In kind it is functional.
Assay [42] relates to Mus musculus. As to the kind of experiment: Time of effect in the face-to-face behavioral assay in the mouse when a dose of 36 micro mol/kg is administered subcutaneously. In kind it is functional.
The subject of assay [43] is Mus musculus. As to the kind of experiment: Effective dose on hypothermia in mouse when administered through peroral route. It is filed as functional.
In assay [44] the test system is Mus musculus. Briefly: Time of effect in the isolation-induced aggression behavioral assay in the mouse when a dose of 36 micro mol/kg is administered intraperitoneally (*,p<0.05). In kind it is functional.
Assay [45] relates to Mus musculus. As to the kind of experiment: Time of effect in the isolation-induced aggression behavioral assay in the mouse when a dose of 0.0 micro mol/kg is administered intraperitoneally. It is filed as functional.
The test system of assay [46] is Mus musculus. As to the kind of experiment: Time of effect in the isolation-induced aggression behavioral assay in the mouse when a dose of 0.0 micro mol/kg is administered perorally. In kind it is functional.
The species named for assay [47] is Mus musculus. Briefly: Time of effect in the face-to-face behavioral assay in the mouse […]. It is filed as functional.
The subject of assay [48] is Felis catus. As to the kind of experiment: Maximum decrease of sympathetic nerve activity (SND) in anesthetized cat. On the set-up: scale not given: the % may be the effect or the level left. In kind it is functional.
For assay [49], the system named is Mus musculus. Briefly: Time of effect in the isolation-induced aggression behavioral assay in the mouse when a dose of 0.4 micro mol/kg is administered intraperitoneally. It is filed as functional.
Assay [50] relates to Rattus norvegicus. Briefly: Inhibition of firing rates of serotonergic neurons in the dorsal raphe nucleus by intravenous injection in rats. In kind it is functional. Particulars: Rattus norvegicus, Dorsal raphe nucleus, iv; read-out: ED50.
For assay [51], the system named is Felis catus. As to the kind of experiment: Maximum decrease of arterial blood pressure at sympathetic nerve activity (SND) in anesthetized cat has been observed following 1 mg/kg dose. In kind it is functional. Also on record: scale not given: the % may be the effect or the level left.
The test system of assay [52] is Mus musculus. Briefly: Maximum decrease in temperature when compound is administered subcutaneously. It is filed as functional.
Assay [53] deals with Mus musculus. As to the kind of experiment: Time of effect in the isolation-induced aggression behavioral assay in the mouse when a dose of 3.6 micro mol/kg is administered perorally. It is filed as functional.
For assay [54], the system named is Rattus norvegicus. Briefly: Effect on the synthesis rates of dopamine (DOPA accumulation) in the rat ventral limbic brain region at 10.7 micro mol/kg. It is filed as functional, Limbic system.
The subject of assay [55] is Mus musculus. Briefly: Time of effect in the isolation-induced aggression behavioral assay in the mouse when a dose of 11 micro mol/kg is administered perorally. In kind it is functional.
Assay [56] deals with Mus musculus. As to the kind of experiment: Time of effect in the isolation-induced aggression behavioral assay in the mouse when a dose of 3.6 micro mol/kg is administered intraperitoneally (*,p<0.05). In kind it is functional.
Assay [57] has as its system Rattus norvegicus. As to the kind of experiment: Effect on the synthesis rates of serotonin in the rat ventral limbic brain region 10.7 micro mol/kg. In kind it is functional, Limbic system.
Assay [58] concerns Mus musculus. Briefly: Time of effect in the isolation-induced aggression behavioral assay in the mouse when a dose of 36 micro mol/kg is administered perorally. In kind it is functional.

T1 sequence (P14416 whole entry): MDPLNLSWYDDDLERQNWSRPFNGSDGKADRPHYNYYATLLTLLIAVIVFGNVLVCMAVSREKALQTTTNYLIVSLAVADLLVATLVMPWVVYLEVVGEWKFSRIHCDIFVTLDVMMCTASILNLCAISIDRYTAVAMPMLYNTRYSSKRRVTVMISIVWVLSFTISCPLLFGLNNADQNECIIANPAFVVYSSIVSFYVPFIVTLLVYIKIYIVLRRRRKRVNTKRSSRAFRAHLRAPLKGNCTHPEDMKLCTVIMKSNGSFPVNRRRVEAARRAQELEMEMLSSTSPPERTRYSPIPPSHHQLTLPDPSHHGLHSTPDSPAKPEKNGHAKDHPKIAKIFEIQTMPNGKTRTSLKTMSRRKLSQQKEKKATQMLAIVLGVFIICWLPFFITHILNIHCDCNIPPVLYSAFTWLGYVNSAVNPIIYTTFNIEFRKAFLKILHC
Sequence of D(2) dopamine receptor (Rattus norvegicus, UniProt P61169) (P61169 whole entry): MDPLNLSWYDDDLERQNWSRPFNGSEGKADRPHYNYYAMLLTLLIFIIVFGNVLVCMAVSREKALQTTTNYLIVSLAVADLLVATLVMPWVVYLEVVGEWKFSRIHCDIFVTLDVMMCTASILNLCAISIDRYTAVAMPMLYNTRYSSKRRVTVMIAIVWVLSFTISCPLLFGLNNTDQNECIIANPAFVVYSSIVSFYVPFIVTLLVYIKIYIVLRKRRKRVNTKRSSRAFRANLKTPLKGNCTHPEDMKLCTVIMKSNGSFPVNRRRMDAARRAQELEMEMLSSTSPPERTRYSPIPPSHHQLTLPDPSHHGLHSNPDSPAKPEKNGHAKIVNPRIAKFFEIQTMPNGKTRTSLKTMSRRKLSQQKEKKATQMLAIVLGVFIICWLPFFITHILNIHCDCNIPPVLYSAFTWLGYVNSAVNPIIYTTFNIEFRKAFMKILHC

Turning to `CCCN1CC[C@H]2Cc3c(O)cccc3C[C@@H]21`, the ED50 in assay [1] and in [19] was more than 3.73 µmol/kg in each case. Further, the Locomotor activity is 119 in assay [2]; 81 in assay [4]; 1 in assay [5]; 84 in assay [7]; 109 in [8]; 121 in assay [9]. Also, the Locomotor activity in assay [10] turned out to be 86; in [11], 77; in assay [12], 113; in assay [13], 103; in assay [14], 119; in assay [16] it was 45. Besides, the Ki in [3] is more than 630 nM; in assay [6], 917 nM. Besides, the Control in assay [15] stood at 20%; in assay [17], 12%. Besides, the Intrinsic activity in assay [18] stood at 18%.

Molecule `CN1CCc2cccc3c2[C@H]1Cc1ccc(O)c(O)c1-3` [APOMORPHINE] came in with an ED50 in [1] of 0.031 µmol/kg. Besides, the Locomotor activity in assay [20] is 69; in [21], 66; in [22], 1184; in [23] it was 113; in assay [24], 52; in assay [26] it was 1777. For the same molecule, the Locomotor activity in assay [27] came out at 150; in assay [28], 96; in assay [29], 78; in [31], 119; in [32], 22; in [33], 135. Also, the Locomotor activity was found to be 86 in assay [34], 42 in assay [35], 139 in [36] and 73 in [37]. Also, the values for the Control in assay [25] and in assay [30] were 17% and -55%, respectively.

Regarding `C=CCN1CC[C@@H]2Cc3c(cccc3OC)C[C@H]21` (racemic), the Max temperature decrease in assay [38] stood at 9.9; in [52], 7.8. Besides, the Time in [39] is reported as 3.6 s; in assay [41] it was 1.5 s; in assay [42] it was 6.9 s; in assay [44], 522 s; in assay [45], 3 s; in [46], 73 s. The Time in assay [47] came to 0.9 s; in assay [49] it was 3 s; in [53] it was 88 s; in assay [55] it was 218 s; in [56] it was 147 s; in assay [58], 393 s. In assay [3], the Ki is more than 1000 nM. For the same molecule, the values for the ED50 in assay [40], in [43] and in assay [50] were 2.6 µM/kg, 4.6 µM/kg and 0.14 µmol/kg, respectively. Also, the Control is recorded as 78% in assay [48], 63% in assay [51], -26 in assay [54] and -39 in assay [57].

As a reminder, the Ki is the dissociation constant of the complex between target and ligand, obtained from inhibition or displacement.

Source of the values: ChEMBL document CHEMBL1126639, “Centrally acting serotonergic and dopaminergic agents. 2. Synthesis and structure-activity relationships of 2,3,3a,4,9,9a-hexahydro-1H-benz[f]indole derivatives” (J Med Chem, 1993).
